These results are taken from patent US6852696B2, “Inhibitors of glycosaminoglycans” (The University of Texas System, priority 1999, dated 2005).

“Also recorded” adds a separate entry of the source.

In test [1] the test system is HA. Conditions: co-pending application 60/126,475; cited from earlier work.
Test [2] concerns Langerhans cells (LC). The following applies: co-pending application 60/126,475; cited from earlier work.
Test [3] relates to Langerhans cells (LC). Briefly: DNFB-induced LC maturation (CD86 expression by IA+ epidermal cells). It is filed as in vivo, BALB/c mice. The following applies: two local injections, 40 μg/injection/ear, 24 and 3 hours before DNFB. An excerpt: FIGS. 6A-C. Impact of Pep-1 on hapten-induced LC maturation. (FIG. 6A) Epidermal cells isolated from BALB/c mice at 17 hr after topical application of 0.5% DNFB or vehicle alone were double-stained with FITC-conjugated anti-IA mAb and PE-conjugated anti-CD86 mAb. Data shown are representative two-color FACS profiles, documenting marked elevated surface expression of CD86 by IA^+ epidermal cells (i.e., LC) after DNFB application. (FIG. 6B) BALB/c mice received subcutaneous two local injections of Pep-1 or RP (40 μg/injection/ear) 24 and 3 hours before topical application of 0.5% DNFB and epidermal cells were isolated 17 hr later to examine the expression levels of CD86 on LC. […] (FIG. 6C) Graphical representation of the % CD86^+ cells/IA^+ LC from three independent experiments described in (FIG. 6B) with circles, triangles, and squares showing corresponding pairs in each experiment. Bars represent the mean values (n=3) and the asterisk indicates statistically significant difference between the Pep-1 and the RP panels (*p<0.03 by the Mann-Whitney U test).
A critical question concerns the physiological significance of the above finding. Topical application of haptens is known to trigger not only LC migration from the epidermis, but also their maturation. […]

Test [4] has as its system HA. Briefly: Adhesion of 35S-labeled BW5147 thymoma cells to HA-coated plates. Conditions: 500 μg/ml pretreatment. In kind it is cell-based. The protocol: FIGS. 1A-B. (FIG. 1A) ^35S-labeled BW5147 thymoma cells were incubated on HA-coated plates (0.1 μg/ml) that had been pretreated with the indicated peptides (500 μg/ml). Data shown are the means+/−S.D. of % binding from quadruplicate samples. (FIG. 1B) FITC-conjugated HA (0.3 μg/ml) was preincubation with the indicated peptide (500 μg/ml) and examined for binding to BW5147 thymoma cells. Data shown are the binding of FITC-conjugated HA in the presence of the indicated peptides (closed histograms) as compared to the background autofluorescence levels (open histograms).
FIGS. 5A-C. Impact of Pep-1 on HA degradation products. […] After extensive wash, the amounts of remaining biotinylated HA on the plates were determined by addition of streptavidin-alkaline phosphatase followed by p-nitrophenyl phosphate substrate. The % HA digestion was calculated from the optical densities. The data shown are the means+/−s.e.m.from triplicate samples analyzed with a hyperbolic model. […] Results are expressed as the means+/−s.e.m.from triplicate samples.
To test the impact of Pep-1 on HA degradation, the present inventors developed a 96 well-based assay in which biotinylated HA was immobilized onto the plates and treated with HAase. The amounts of HA that remained attached to the wells was then determined by addition of streptavidin-conjugated alkaline phosphatase (FIG. 5A).

The subject of another test is DC-associated HA. The experiment in a line: Binding of biotinylated peptide to DC surfaces. The following applies: biotinylated form. How it is done: FIGS. 8B-D. Synthesis and surface expression of HA by DC. (B) XS106 DC were labeled with ^3H-glucosamine and then examined for the incorporation of hyaluronidase-sensitive radioactivities (means+/−s.e.m.; n=5) into the indicated subcellular fractions. (C) XS106 DC were incubated with biotinylated Pep-1 or RP and then with PE-conjugated streptavidin (filed histograms) (Mummert et al. J. Exp. Med. 192:769-779, 2000) or bovine testis hyaluronidase. Baseline staining levels with PE-streptavidin alone are shown with open histograms. (D) The indicated DC preparations were examined for binding of biotinylated Pep-1 (filled) and RP (open). Peptide binding to splenic DC and bone marrow-DC was examined within the CD11c^+ populations.

With GAHWQFNALTVR [Pep-1], the “binding to HA” value in the test with HA [1] is “specific binding to soluble, immobilized, and cell-associated forms of HA”. Besides, the “inhibition of sensitization phase / hapten-triggered LC migration” value in the test with Langerhans cells (LC) [2] was “blocking hapten-triggered migration of Langerhans cells”. Moreover, the “prevention of DNFB-induced LC maturation (CD86 up-regulation)” value in the test on Langerhans cells (LC) [3] is “prevented this DNFB-induced LC maturation; also recorded: is prevented”. Moreover, the “inhibition of BW5147 cell adhesion to HA substrate” value in the test with HA [4] is on record as “blocked BW5147 cell adhesion; also recorded: significant (p<0.01 by ANOVA) inhibition of cell adhesion”. In the test on DC-associated HA, the “binding to other DC preparations (XS52 DC, splenic DC, bone marrow-derived DC)” value is reported as “bound to all other tested DC preparations” and the “binding to surfaces of XS106 DC” value was “bound to the surfaces of XS106 DC”. The “binding to DC after hyaluronidase pretreatment” value in the test on DC-associated HA (hyaluronidase pretreatment of DC) is on record as “abolished almost completely”.
